The source of these data is patent publication US12065466B2, “Methods and compositions for protein sequencing” (Quantum-Si Incorporated, priority 2020, dated 2024).

“Also recorded” adds a separate entry of the source. Square brackets hold non-standard residues; d marks the D form. Ends that are not written are not given here. Lys(N3) = [N-]=[N+]=NCCCC[C@H](N)C(=O)O

One test relates to proline iminopeptidase (PIP). Kind of test: Terminal amino acid cleavage of peptide-linker conjugates by PIP (LCMS). In kind it is biochemical. The following applies: monitored by LCMS. As for the experimental part: (§1) The peptide-linker conjugates were evaluated for amino acid cleavage at peptide N-termini by N-terminal aminopeptidases (Table 6, below).
(§2) The peptide-linker conjugates shown in Table 6 were incubated with either proline iminopeptidase (“PIP”) or rat aminopeptidase N (“Rat APN”), and peptide cleavage was monitored by LCMS. All other cleavage reactions were measured in a similar manner.
Consider “8: peptide-linker conjugate: FPFPFP{LYS(N3)} (SEQ ID NO. 230), oligo linker (FPFPFP[Lys(N3)]; also: oligo linker, attachment not given here) [Entry 8]”, for which the “Cleaved by PIP” value is reported as “Yes”.

“9: peptide-linker conjugate: DPDPDP{LYS(N3)} (SEQ ID NO. 231), oligo linker (DPDPDP[Lys(N3)]; also: oligo linker, attachment not given here) [Entry 9]”: the “Cleaved by PIP” value is listed as “Yes”. On to “10: peptide-linker conjugate: KPKPKP{LYS(N3)} (SEQ ID NO. 232), oligo linker (KPKPKP[Lys(N3)]; also: oligo linker, attachment not given here) [Entry 10]”, for which the “Cleaved by PIP” value is listed as “No”. Regarding “11: peptide-linker conjugate: KPKPKP{LYS(N3)} (SEQ ID NO. 233), PEG4 linker (KPKPKP[Lys(N3)]; also: PEG4 linker, attachment not given here) [Entry 11]”, the “Cleaved by PIP” value is “Yes”.

The next test addresses T1, rat aminopeptidase N (Rat APN) (Rattus norvegicus, UniProt P15684).
T1 sequence (P15684 1-965): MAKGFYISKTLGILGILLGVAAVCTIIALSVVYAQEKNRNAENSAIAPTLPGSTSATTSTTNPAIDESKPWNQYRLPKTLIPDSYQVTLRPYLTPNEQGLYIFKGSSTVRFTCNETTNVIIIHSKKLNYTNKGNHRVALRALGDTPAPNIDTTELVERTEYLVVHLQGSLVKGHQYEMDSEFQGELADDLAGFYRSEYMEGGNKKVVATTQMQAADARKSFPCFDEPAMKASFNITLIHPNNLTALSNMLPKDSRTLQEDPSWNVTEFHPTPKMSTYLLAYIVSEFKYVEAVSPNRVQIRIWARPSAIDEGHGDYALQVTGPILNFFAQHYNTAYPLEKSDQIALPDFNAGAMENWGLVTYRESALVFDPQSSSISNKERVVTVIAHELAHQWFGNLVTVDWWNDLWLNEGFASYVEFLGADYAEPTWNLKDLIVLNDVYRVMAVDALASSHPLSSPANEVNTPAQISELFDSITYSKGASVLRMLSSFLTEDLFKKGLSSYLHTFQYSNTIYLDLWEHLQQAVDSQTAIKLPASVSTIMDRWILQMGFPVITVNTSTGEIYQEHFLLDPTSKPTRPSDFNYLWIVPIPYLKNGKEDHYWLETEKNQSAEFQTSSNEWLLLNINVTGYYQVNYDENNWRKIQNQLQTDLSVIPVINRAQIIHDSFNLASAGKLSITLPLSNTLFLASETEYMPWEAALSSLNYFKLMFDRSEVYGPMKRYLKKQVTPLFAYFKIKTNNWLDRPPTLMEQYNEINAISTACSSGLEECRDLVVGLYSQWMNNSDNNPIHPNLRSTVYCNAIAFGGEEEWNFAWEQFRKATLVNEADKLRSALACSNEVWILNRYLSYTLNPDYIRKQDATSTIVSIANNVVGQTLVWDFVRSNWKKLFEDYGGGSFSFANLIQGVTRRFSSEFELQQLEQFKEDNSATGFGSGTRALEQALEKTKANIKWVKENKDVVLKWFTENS
Kind of test: Terminal amino acid cleavage of peptide-linker conjugates by Rat APN (LCMS). Format: biochemical. The following applies: monitored by LCMS. As for the experimental part: as §1, §2
As to “2: peptide-linker conjugate: KKMKKM{LYS(N3)} (SEQ ID NO. 224), oligo linker (KKMKKM[Lys(N3)]; also: oligo linker, attachment not given here) [Entry 2]”, the “Cleaved by Rat APN” value is “No”.

As for “3: peptide-linker conjugate: KKMKKM{LYS(N3)} (SEQ ID NO. 225), oligo-PEG linker (KKMKKM[Lys(N3)]; also: oligo-PEG linker, attachment not given here) [Entry 3]”, the “Cleaved by Rat APN” value is “No”. For “4: peptide-linker conjugate: KKMKKM{LYS(N3)} (SEQ ID NO. 226), PEG4 linker (KKMKKM[Lys(N3)]; also: PEG4 linker, attachment not given here) [Entry 4]”, the “Cleaved by Rat APN” value is “Yes”.

For the substance “6: peptide-linker conjugate: FFMFFM{LYS(N3)} (SEQ ID NO. 228), oligo linker (FFMFFM[Lys(N3)]; also: oligo linker, attachment not given here) [Entry 6]”, the “Cleaved by Rat APN” value was “Yes”. Regarding “7: peptide-linker conjugate: AAMAAM{LYS(N3)} (SEQ ID NO. 229), oligo linker (AAMAAM[Lys(N3)]; also: oligo linker, attachment not given here) [Entry 7]”, the “Cleaved by Rat APN” value is on record as “Yes”. Still for that read-out and setting: the same measure for “Entry 5: peptide-linker conjugate: DDMDDM{LYS(N3)} (SEQ ID NO. 227), oligo linker (DDMDDM[Lys(N3)]; also: oligo linker, attachment not given here)”: “Yes”.

In another test the test system is amino acid at a terminal position of a polypeptide.
Test: not given
The following applies: Table 2; amino acid identity at a terminal position (phosphotyrosine also internal); inferred from literature and/or demonstrated by the inventors; cited from earlier work.
Consider “H. sapiens Src tyrosine kinase SH2 domain: SEQ ID NO: 118”, for which the “Binding Pref.” value is listed as “phospho-Y”.

As for “H. sapiens p62 fragment 1-180: SEQ ID NO: 121”, the “Binding Pref.” value is listed as “K, R, H,; also recorded: W, F, Y”. For “H. sapiens p62 fragment 1-310: SEQ ID NO: 120”, the “Binding Pref.” value is listed as “K, R, H,; also recorded: W, F, Y”. “H. sapiens p62 fragment 126-180: SEQ ID NO: 122”: the “Binding Pref.” value is given as “K, R, H,; also recorded: W, F, Y”.

For “Rattus norvegicus p62 protein: SEQ ID NO: 124”, the “Binding Pref.” value is recorded as “K, R, H,; also recorded: W, F, Y”.
